Article PMC6736568, “Discovery of Novel Anti-cryptosporidial Activities From Natural Products by in vitro High-Throughput Phenotypic Screening” (Frontiers in Microbiology, 2019)
Read-outs that look alike come from different tables or passages of the source.

Assays:
Cryptosporidium parvum = experiment: qRT-PCR assay of the growth of C. parvum in vitro in HCT-8 host cells (primary and secondary screening, EC50); format: cell-based; conditions: Cryptosporidium parvum, HCT-8; for inhibition at 10 µM: primary screening at 10 uM, read-out: Inhibition (%); for inhibition at 3.3 µM: secondary screening at 3.3 uM, read-out: % Inhibition (3.3 uM)
[1] = primary screening at 10 uM, treated vs control

SMILES | inhibition at 10 µM (Cryptosporidium parvum) [%] | cytotoxicity at 41 h, 10 µM (in vitro; human) [%] | Hs18S ΔCT (HCT-8 host cells (Hs18S); human, 41 h, 10 μM) | cytotoxicity at 10 µM (in vitro) [%] | Hs18S ΔCT (HCT-8 host cells (Hs18S); [1]) | inhibition at 3.3 µM (Cryptosporidium parvum) [%] | cytotoxicity at 41 h, 10 µM (in vitro) [%]
O=C(/C=C/c1ccccc1)c1ccc(O)cc1O [2',4'-DIHYDROXYCHALCONE] | 6.05 | 6.1 | 0.09 |  |  |  | 
COc1ccc(-c2coc3cc(O)ccc3c2=O)c(OC)c1 [2'-METHOXYFORMONETIN] | 12.9 | 11.5 | 0.18 |  |  |  | 
CCOc1ccc(C(=O)c2ccc(O)c(O)c2O)cc1 [2,3,4-TRIHYDROXY-4'-ETHOXYBENZOPHENONE] | -43.7 | 14.4 | 0.22 |  |  |  | 
CCOc1ccc(C(=O)c2ccc(OC)c(O)c2O)cc1 [2,3-DIHYDROXY-4-METHOXY-4'-ETHOXYBENZOPHENONE] | 39 | -8.6 | -0.12 |  |  |  | 
COc1cc(O)c(C)c(O)c1 [2,6-DIHYDROXY-4-METHOXYTOLUENE] | 19 | 4.4 | 0.06 |  |  |  | 
COC1=CC(=O)C=C(OC)C1=O [2,6-DIMETHOXYQUINONE] | -5.86 |  |  | -4.3 | -0.06 |  | 
CC(=O)c1ccc[nH]1 [2-ACETYLPYRROLE] | 22.6 | -34.6 | -0.43 |  |  |  | 
COC1=CC(=O)C(C(=O)c2ccccc2)=CC1=O [2-BENZOYL-5-METHOXYBENZOQUINONE] | 16.2 | -50.7 | -0.59 |  |  |  | 
COc1ccc(C(=O)O)c(O)c1OC [2-HYDROXY-3,4-DIMETHOXYBENZOIC ACID] | 7.69 | 10.5 | 0.16 |  |  |  | 
CC1(C)CC2C1CCC1(C)OC1CCC2(C)O (stereo not drawn) [2-HYDROXY-5 (6)EPOXY-TETRAHYDROCARYOPHYLLENE] | 46.2 | -10.9 | -0.15 |  |  |  | 
COC1(C)CCC2OC2(C)CCC2C1CC2(C)C (stereo not drawn) [2-METHOXY-5 (6)EPOXY-TETRAHYDROCARYOPHYLLENE] | -24.7 | -11.1 | -0.15 |  |  |  | 
COc1c(O)cccc1O [2-METHOXYRESORCINOL] | 20.3 | -15 | -0.20 |  |  |  | 
Cc1[nH]c2ccccc2c1CN(C)C [2-METHYL GRAMINE] | 0.92 | -7.5 | -0.11 |  |  |  | 
C=C[C@@H](C1=CC(=O)C(OC)=C(OC)C1=O)c1ccccc1 [3,4-DIMETHOXYDALBERGIONE] | 11.6 | 3.8 | 0.06 |  |  |  | 
COc1ccc2c(=O)c(OC)c(-c3ccccc3)oc2c1 [3,7-DIMETHOXYFLAVONE] | 49.7 | -15.4 | -0.21 |  |  |  | 
CC1(C)CC2C1CCC1(C)OC2(C)CCC1O (stereo not drawn) [3,7-EPOXYCARYOPHYLLAN-6-OL] | 12.9 | 7.2 | 0.11 |  |  |  | 
CC12CCC3C(CC3(C)C)C(C)(CCC1=O)O2 (stereo not drawn) [3,7-EPOXYCARYOPHYLLAN-6-ONE] | 13.1 | 17 | 0.27 |  |  |  | 
COC(=O)C[C@H]1C(C)(C)[C@@H](O)[C@@H]2CC3=C4CC(O)O[C@@H](c5ccoc5)[C@]4(C)CCC3[C@@]1(C)C2=O (stereo partly drawn) [3,16-DIDEOXYMEXICANOLIDE-3beta-DIOL] | 87.5 | -13.4 | -0.18 |  |  | 52 | 
C=C1C(N)CC2CC1C2(C)C (stereo not drawn) [3-AMINO-beta-PINENE] | 19.2 | 25.3 | 0.42 |  |  |  | 
COc1ccc2c(c1)OC[C@@H](Cc1ccc(OC)c(OC)c1)[C@@H]2O [3-DESHYDROXYSAPPANOL TRIMETHYL ETHER] | 7.69 | 3.2 | 0.05 |  |  |  | 
O=c1oc2ccccc2cc1O [3-HYDROXYCOUMARIN] | -39.6 | -15.7 | -0.21 |  |  |  | 
O=c1c(O)c(-c2ccccc2)oc2ccccc12 [3-HYDROXYFLAVONE] | 92.4 | -2.7 | -0.04 |  |  | -28 | 

SMILES | inhibition at 10 µM (Cryptosporidium parvum) [%] | cytotoxicity at 41 h, 10 µM (in vitro; human) [%] | Hs18S ΔCT (HCT-8 host cells (Hs18S); human, 41 h, 10 μM) | cytotoxicity at 10 µM (in vitro) [%] | Hs18S ΔCT (HCT-8 host cells (Hs18S); [1]) | inhibition at 3.3 µM (Cryptosporidium parvum) [%] | cytotoxicity at 41 h, 10 µM (in vitro) [%]
COc1cccc(O)c1O [3-METHOXYCATECHOL] | -66.7 | 3.2 | 0.05 |  |  |  | 
Cc1cc(O)c(C)c(O)c1C(=O)O [3-METHYLORSELLINIC ACID] | 30.8 | 3.6 | 0.05 |  |  |  | 
CC1(C)CC23C(=O)CCC(O)C2(C)CCC13 (stereo not drawn) [3-NOR-3-OXOPANASINSAN-6-OL] | 23.9 | 15.3 | 0.24 |  |  |  | 
CC1/C(=N/O)C[C@@H]2C[C@H]1C2(C)C (stereo partly drawn) [3-PINANONE OXIME] | -6.18 | 1.5 | 0.02 |  |  |  | 
C[C@]12CC[C@@H](O)C[C@H]1CCc1ccccc12 [3alpha-HYDROXY-4,4-BISNOR-8,11,13-PODOCARPATRIENE] | -50.2 | -4.1 | -0.06 |  |  |  | 
O=C(/C=C/c1ccccc1)c1ccc(O)cc1 [4'-HYDROXYCHALCONE] | 9.45 | 20.5 | 0.33 |  |  |  | 
COc1ccc(C(=O)/C=C/c2ccccc2)cc1 [4'-METHOXYCHALCONE] | 20 | -12 |  |  | -0.16 |  | 
COc1ccc(-c2cc(=O)c3ccccc3o2)cc1 [4'-METHOXYFLAVONE] | 44.4 | -6.3 |  |  | -0.09 |  | 
C=CC(C1=CC(=O)C(OC)=CC1=O)c1ccc(OC)cc1 (stereo not drawn) [4,4'-DIMETHOXYDALBERGIONE] | -34.2 | -0.7 | -0.01 |  |  |  | 
CC(=O)Oc1ccc(O)cc1 [4-ACETOXYPHENOL] | -14.1 | 13.4 | 0.21 |  |  |  | 
C=CC(C1=CC(=O)C(OC)=CC1=O)c1ccccc1 (stereo not drawn) [4-METHOXYDALBERGIONE] | -28.5 | -2.3 | -0.03 |  |  |  | 
Cc1cc(=O)oc2c(O)c(O)ccc12 [4-METHYLDAPHNETIN] | -23.7 | -16.6 | -0.22 |  |  |  | 
Cc1cc(=O)oc2cc(O)c(O)cc12 [4-METHYLESCULETIN] | -3.64 |  |  | 0.7 | 0.01 |  | 
Cc1c[nH]cn1 [4-METHYLIMIDAZOLE] | -27.8 |  |  | 11.5 | 0.18 |  | 
CCCCCCCCCc1ccc(O)cc1 [4-NONYLPHENOL] | 83.1 |  |  | 9.2 | 0.14 | -181 | 
CC(C)CCC[C@@H](C)[C@H]1CC[C@H]2[C@@H]3CC(=O)[C@H]4C[C@@H](O)CC[C@]4(C)[C@H]3CC[C@]12C [5alpha-CHOLESTAN-3beta-OL-6-ONE] | -27.8 |  |  |  | 0.53 |  | 30.6
COc1cccc(-c2cc(=O)c3cc(OC)ccc3o2)c1 [6,3'-DIMETHOXYFLAVONE] | 1.27 | -5.6 | -0.08 |  |  |  | 
O=c1cc(-c2ccccc2)oc2ccc(O)cc12 [6-HYDROXYFLAVONE] | 40 | 5.6 | 0.08 |  |  |  | 
O=c1cc(-c2ccccc2)oc2c(O)c(O)ccc12 [7,8-DIHYDROXYFLAVONE] | 49.3 |  |  | 28.8 | 0.49 |  | 
O=c1cc(-c2ccccc2)oc2cc(O)ccc12 [7-HYDROXYFLAVONE] | 9.24 |  |  | 10.8 | 0.17 |  | 
COc1ccc2c(=O)ccoc2c1 [7-METHOXYCHROMONE] | -17.1 | -26.1 | -0.34 |  |  |  | 
CC(=O)O[C@H]1CC[C@@]2(C)C(=CC(=O)[C@H]3[C@@H]4CC[C@H]([C@H](C)CCCC(C)C)[C@@]4(C)CC[C@@H]32)C1 [7-OXOCHOLESTERYL ACETATE] | -24.9 | -15.2 | -0.20 |  |  |  | 
